# Assay results: PubChem BioAssay AID2060497 (Molecular Pharmacology Branch, DTP, NCI, 2025)
# pIC50: −log10 of the molar value.
# Test system: 317291-083-R-J1-PDC complex spheroids, viability
# Experiment: Anticancer human tumor 317291-083-R-J1-PDC patient-derived soft tissue sarcoma cell line growth inhibition [GQUAD]
# Details: for pIC50: curve of first compound; for viability, T/C: stronger effect = lower value
# Outline: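 Multi-cell-type spheroids of tumor cells with HUVEC and mesenchymal stem cells, treated with drug combinations. Concentrations descend in half-log steps from near clinical Cmax, or from 10 microM where Cmax is unknown; viability read-out.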
# [1] = second compound 0.0316 µM, first compound 0.0316 µM
# [2] = second compound 0.0316 µM, first compound 0.1 µM
# [3] = second compound 0.0316 µM, first compound 0.316 µM
# [4] = second compound 0.0316 µM, first compound 1 µM
# [5] = second compound 0.0316 µM, first compound 3.16 µM
# [6] = second compound 0.0316 µM, first compound 10 µM
# [7] = second compound 0.1 µM, first compound 0.0316 µM
# [8] = second compound 0.1 µM, first compound 0.1 µM
# [9] = second compound 0.1 µM, first compound 0.316 µM
# [10] = second compound 0.1 µM, first compound 1 µM
# [11] = second compound 0.1 µM, first compound 3.16 µM
# [12] = second compound 0.1 µM, first compound 10 µM
# [13] = second compound 0.316 µM, first compound 0.0316 µM
# [14] = second compound 0.316 µM, first compound 0.1 µM
# [15] = second compound 0.316 µM, first compound 0.316 µM
# [16] = second compound 0.316 µM, first compound 1 µM
# [17] = second compound 0.316 µM, first compound 3.16 µM
# [18] = second compound 0.316 µM, first compound 10 µM
# [19] = second compound 1 µM, first compound 0.0316 µM
# [20] = second compound 1 µM, first compound 0.1 µM
# [21] = second compound 1 µM, first compound 0.316 µM
# [22] = second compound 1 µM, first compound 1 µM
# [23] = second compound 1 µM, first compound 3.16 µM
# [24] = second compound 1 µM, first compound 10 µM
# [25] = second compound 3.16 µM, first compound 0.0316 µM
# [26] = second compound 3.16 µM, first compound 0.1 µM
# [27] = second compound 3.16 µM, first compound 0.316 µM
# [28] = second compound 3.16 µM, first compound 1 µM
# [29] = second compound 3.16 µM, first compound 3.16 µM
# [30] = second compound 3.16 µM, first compound 10 µM
# [31] = second compound 10 µM, first compound 0.0316 µM
# [32] = second compound 10 µM, first compound 0.1 µM
# [33] = second compound 10 µM, first compound 0.316 µM
# [34] = second compound 10 µM, first compound 1 µM
# [35] = second compound 10 µM, first compound 3.16 µM
# [36] = second compound 10 µM, first compound 10 µM
# 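Further: spheroids exposed to compounds for one week before readout.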
# 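Wherever viability, T/C is given: percent viability relative to DMSO vehicle wells taken as 100%.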
compound,measurement,setting,value
CC1COCCN1c1cc(C2(O)CC3CCC(C2)O3)c2cnn(-c3ccn[nH]3)c2n1 (stereo not drawn) + CN(C)c1ccc(Nc2c3ccc(NC(=O)CCN4CCCC4)cc3nc3cc(NC(=O)CCN4CCCC4)ccc23)cc1,pIC50,second compound 0.0316 µM,7.43
same,pIC50,second compound 0.1 µM,> 7.50
same,pIC50,second compound 0.316 µM,> 7.50
same,pIC50,second compound 1 µM,> 7.50
same,pIC50,second compound 3.16 µM,> 7.50
same,pIC50,second compound 10 µM,> 7.50
same,"viability, T/C",[1],54.7%
same,"viability, T/C",[2],21.6%
same,"viability, T/C",[3],16.4%
same,"viability, T/C",[4],16.2%
same,"viability, T/C",[5],12.9%
same,"viability, T/C",[6],2.01%
same,"viability, T/C",[7],50.5%
same,"viability, T/C",[8],25.5%
same,"viability, T/C",[9],18.2%
same,"viability, T/C",[10],15.3%
same,"viability, T/C",[11],11.1%
same,"viability, T/C",[12],3.17%
same,"viability, T/C",[13],44.2%
same,"viability, T/C",[14],17.4%
same,"viability, T/C",[15],12.6%
same,"viability, T/C",[16],12.1%
same,"viability, T/C",[17],12.8%
same,"viability, T/C",[18],2.37%
same,"viability, T/C",[19],23.5%
same,"viability, T/C",[20],10.9%
same,"viability, T/C",[21],8.42%
same,"viability, T/C",[22],5.55%
same,"viability, T/C",[23],7.51%
same,"viability, T/C",[24],1.2%
same,"viability, T/C",[25],15.1%
same,"viability, T/C",[26],9.28%
same,"viability, T/C",[27],6%
same,"viability, T/C",[28],3.23%
same,"viability, T/C",[29],4.27%
same,"viability, T/C",[30],0.57%
same,"viability, T/C",[31],4.09%
same,"viability, T/C",[32],3.93%
same,"viability, T/C",[33],2.46%
same,"viability, T/C",[34],2.16%
same,"viability, T/C",[35],2.2%
same,"viability, T/C",[36],0.34%
O=C(NO)c1cnc(N2CCN(S(=O)(=O)c3ccc4ccccc4c3)CC2)nc1 + Cc1cnc(CNC(=O)c2c(=O)c3ccc(N4CCCN(C)CC4)nc3n3c2sc2ccccc23)cn1,pIC50,second compound 0.0316 µM,6.96
same,pIC50,second compound 0.1 µM,> 7.50
same,pIC50,second compound 0.316 µM,> 7.50
same,pIC50,second compound 1 µM,> 7.50
same,pIC50,second compound 3.16 µM,> 7.50
same,pIC50,second compound 10 µM,> 7.50
same,"viability, T/C",[1],82.5%
same,"viability, T/C",[2],53.5%
same,"viability, T/C",[3],7.38%
same,"viability, T/C",[4],0.63%
same,"viability, T/C",[5],0.05%
same,"viability, T/C",[6],0.08%
same,"viability, T/C",[7],47.2%
same,"viability, T/C",[8],41.8%
same,"viability, T/C",[9],6.03%
same,"viability, T/C",[10],0.12%
same,"viability, T/C",[11],0.03%
same,"viability, T/C",[12],0.29%
same,"viability, T/C",[13],44.2%
same,"viability, T/C",[14],45.2%
same,"viability, T/C",[15],5.28%
same,"viability, T/C",[16],0.07%
same,"viability, T/C",[17],0.02%
same,"viability, T/C",[18],0.62%
same,"viability, T/C",[19],43.9%
same,"viability, T/C",[20],15.2%
same,"viability, T/C",[21],2.02%
same,"viability, T/C",[22],0.07%
same,"viability, T/C",[23],0.04%
same,"viability, T/C",[24],0.08%
same,"viability, T/C",[25],8.49%
same,"viability, T/C",[26],0.73%
same,"viability, T/C",[27],1.12%
same,"viability, T/C",[28],1.06%
same,"viability, T/C",[29],0.08%
same,"viability, T/C",[30],0.11%
same,"viability, T/C",[31],0.07%
same,"viability, T/C",[32],0.11%
same,"viability, T/C",[33],0.16%
same,"viability, T/C",[34],0.1%
same,"viability, T/C",[35],0.18%
same,"viability, T/C",[36],0.18%
COc1cccc2c1C(=O)c1c(O)c3c(c(O)c1C2=O)CC(O)(C(=O)CO)CC3OC1CC(N)C(O)C(C)O1 (stereo not drawn) + Cc1[nH]c2ccc(F)cc2c1-c1nc2c3cccnc3c3ncccc3c2[nH]1,pIC50,second compound 0.0316 µM,7.09
same,pIC50,second compound 0.1 µM,7.14
same,pIC50,second compound 0.316 µM,7.11
same,pIC50,second compound 1 µM,6.87
same,pIC50,second compound 3.16 µM,7.18
same,pIC50,second compound 10 µM,7.19
same,"viability, T/C",[1],112%
same,"viability, T/C",[2],31.8%
same,"viability, T/C",[3],21.9%
same,"viability, T/C",[4],9.79%
same,"viability, T/C",[5],0.88%
same,"viability, T/C",[6],4.17%
same,"viability, T/C",[7],80.3%
same,"viability, T/C",[8],35.4%
same,"viability, T/C",[9],21.6%
same,"viability, T/C",[10],8.91%
same,"viability, T/C",[11],1.29%
same,"viability, T/C",[12],2.78%
same,"viability, T/C",[13],88.3%
same,"viability, T/C",[14],36.5%
same,"viability, T/C",[15],19.7%
same,"viability, T/C",[16],13.5%
same,"viability, T/C",[17],1.55%
same,"viability, T/C",[18],3.24%
same,"viability, T/C",[19],89.8%
same,"viability, T/C",[20],60.3%
same,"viability, T/C",[21],21.3%
same,"viability, T/C",[22],11.1%
same,"viability, T/C",[23],1.17%
same,"viability, T/C",[24],1.78%
same,"viability, T/C",[25],77%
same,"viability, T/C",[26],31.2%
same,"viability, T/C",[27],18%
same,"viability, T/C",[28],16.5%
same,"viability, T/C",[29],1.5%
same,"viability, T/C",[30],1.98%
same,"viability, T/C",[31],68.3%
same,"viability, T/C",[32],39.3%
same,"viability, T/C",[33],16.9%
same,"viability, T/C",[34],8.13%
same,"viability, T/C",[35],1.49%
same,"viability, T/C",[36],2.3%
CC(C)n1c(=O)n(C)c2cnc3cc(F)c(-c4ccc(OCCCN5CCCCC5)nc4)cc3c21 + Cc1[nH]c2ccc(F)cc2c1-c1nc2c3cccnc3c3ncccc3c2[nH]1,pIC50,second compound 0.0316 µM,< 5.00
same,pIC50,second compound 0.1 µM,5.06
same,pIC50,second compound 0.316 µM,5.06
same,pIC50,second compound 1 µM,< 5.00
same,pIC50,second compound 3.16 µM,5.10
same,pIC50,second compound 10 µM,< 5.00
same,"viability, T/C",[1],104%
same,"viability, T/C",[2],111%
same,"viability, T/C",[3],92.5%
same,"viability, T/C",[4],97.1%
same,"viability, T/C",[5],86.2%
same,"viability, T/C",[6],50.5%
same,"viability, T/C",[7],104%
same,"viability, T/C",[8],101%
same,"viability, T/C",[9],96.3%
same,"viability, T/C",[10],96.7%
same,"viability, T/C",[11],92.9%
same,"viability, T/C",[12],43.3%
same,"viability, T/C",[13],88.6%
same,"viability, T/C",[14],103%
same,"viability, T/C",[15],105%
same,"viability, T/C",[16],85%
same,"viability, T/C",[17],106%
same,"viability, T/C",[18],42.9%
same,"viability, T/C",[19],114%
same,"viability, T/C",[20],108%
same,"viability, T/C",[21],93.7%
same,"viability, T/C",[22],96.3%
same,"viability, T/C",[23],92.7%
same,"viability, T/C",[24],53.5%
same,"viability, T/C",[25],80.7%
same,"viability, T/C",[26],103%
same,"viability, T/C",[27],97.6%
same,"viability, T/C",[28],72.4%
same,"viability, T/C",[29],93.8%
same,"viability, T/C",[30],39.7%
same,"viability, T/C",[31],99.2%
same,"viability, T/C",[32],107%
same,"viability, T/C",[33],83.5%
same,"viability, T/C",[34],92.5%
same,"viability, T/C",[35],85.2%
same,"viability, T/C",[36],50%
